Results: patent US10849904B2, “Methods for treatment of retinal disease by photoreceptor gene expression modulation” (University of Washington, priority 2015, dated 2020)

Assays:
[1] = tested on: intact retinas from P12 wild type mice; assay: P12 mouse retinal explant culture, qPCR for rod gene expression; format: cell-based; conditions: P12 explants, 1 μM, 2 days, vs DMSO
From the text: To identify functional Nr2e3 antagonists, compounds were cheminformatically searched and structural analogs of a putative Nr2e3 interacting compound with unknown function were collected. See FIGS. 2 and 4 for the structures of the compounds. The collected compounds were then screened in a physiologically relevant primary culture assay using intact retinas from postnatal day 12-13 (P12-13) C57BL/6 mice for suppression of Rho expression (See FIG. 6A). After a 2 day culture period with media containing DMSO or compounds at 1 μM, the retinas were collected and assessed Rho expression by qPCR. Rho was chosen because it is a well-described target of Nr2e3 in rod photoreceptors. […] This analysis also provided an initial structure-activity relationship.
Nr2e3 loss-of-function mutations lead to a reduction in rod gene expression. To determine whether the same was true for PR1 (FIG. 6D), explant cultures of P12 retina as above were treated and assayed for other rod photoreceptor genes. After 2 days in culture, PR1 decreased the expression of the rod specific genes Nrl, Nr2e3, Rho, Gnat1, and Pde6b compared to DMSO treatment by qPCR analysis (FIG. 6C). […] To determine the dose-response relationship between PR1 concentration and expression of rod genes, retinas from P12 mice were explanted in media containing DMSO or 0.1, 1, 5, or 10 μM PR1 for 2-3 days and assayed Nrl, Nr2e3, and Rho expression by qPCR. […] PR1 was tested to determine whether it could cause a reduction in Rho expression in human rod photoreceptors as well. Pairs of 113 day post-conception retinas were explanted in media with DMSO or 10 μM PR1 for 7 or 23 days. After 7 and 23 days in culture, PR1 decreased the expression of Rho compared to DMSO treatment (FIG. 6F), similar to the effect observed in mouse retinal explants.
Intact retinas without RPE from mice of various strains and ages as indicated were explanted on 0.4 μm pore tissue culture inserts (Millipore) as previously described (Ueki, Y., et al., P53 is required for the developmental restriction in Muller glial proliferation in mouse retina. Glia, 2012. 60(10): p. 1579-89; Ueki, Y., et al., A transient wave of BMP signaling in the retina is necessary for Muller glial differentiation. Development, 2015. 142(3): p. 533-43. Full media (DMEM/F12 (1:1) containing 1% dialyzed FBS, 1% Pen Strep, 0.3% D+ glucose, 2% B27, and 1% N2) changes were performed every other day and small molecules were used at 0.1 μM to 10 μM. Where indicated, EdU (Invitrogen) was included in the media at 5 μg/mL and visualized by staining with the Click-iT EdU Alexa Fluor kit (Thermo Fisher Scientific). For human retinal explant cultures, tissue from 113 day post-conception fetuses was obtained from the University of Washington Birth Defects Laboratory and explanted on 0.4 μm pore tissue culture inserts (Millipore) in media (Neurobasal A with 1% FBS, 1% Pen Strep, 1% N2, 1% B27) containing 10 μM Photoregulin1 or an equal volume of DMSO.
RNA was isolated using TRIzol (Invitrogen) and cDNA was synthesized using the iScript cDNA synthesis kit (Bio-Rad) following an intervening DNase treatment with RQ1 RNase-free DNase (Promega). SSO Fast (Bio-Rad) was used for quantitative real-time PCR. For analysis, values were normalized to Gapdh and ΔΔCt between DMSO and compound-treated samples was expressed as percent of DMSO treated controls (100*2^ΔΔCt). Two-way Student's t-tests were performed on ΔCt values.

Thrb (Trβ2) = assay: Cone gene expression, Thrb (FIG. 5)

Row | SMILES | relative rhodopsin (Rho) expression [1] | cone gene expression, Thrb (Trβ2) (Thrb (Trβ2))
1 | Cc1cc(C)cc(NC(=O)CCc2nc3sc4c(c3c(=O)[nH]2)CCC4)c1 [CA8801] | reducing rhodopsin expression | –
2 | Cc1cccc(C(=O)NC(C(=O)Nc2ncc(C)s2)C(C)C)c1 (stereo not shown) [CA95] | reducing rhodopsin expression | increase
3 | Cc1cccc(C(=O)NCC(=O)Nc2ncc(C)s2)c1 [CA9513] | reducing rhodopsin expression | –
